# Legend:
# Assay type in all cases: cell-based, Staphylococcus aureus
# [1] = test system: Staph aureus 1095 MRSA; test: MIC, microtiter broth dilution (CLSI M7-A7), Assay 1, Table 12 column A, no serum; details: Assay 1, no serum; for MIC: Staphylococcus aureus, MRSA
# In short: (§1)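 MIC read as lowest drug level giving no macroscopically visible growth, μg/ml. Method: CLSI M7-A7 microtiter broth dilution, M100-S16 interpretation. Serum arm: inoculum in Mueller-Hinton Broth + 50% pooled inactivated human serum. Multiple runs → geometric mean.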
# [2] = test system: Staph aureus 1146; test: MIC, microtiter broth dilution (CLSI M7-A7), Assay 1, Table 12 column B, no serum; details: for MIC, column B: Staph aureus 1146, Assay 1, no serum; for MIC: Staphylococcus aureus, 1146, Staph aureus 1146, Assay 1, no serum
# In short: as §1
# [3] = test system: Staph aureus 1146; test: MIC in Mueller-Hinton Broth with 50% pooled inactivated human serum, Assay 1, Table 12; details: for MIC, column C: Staph aureus 1146, Assay 1, 50% human serum; for MIC: Staphylococcus aureus, 1146, Staph aureus 1146, Assay 1, 50% human serum, read-out: MIC, column C
# In short: as §1
# [4] = test system: Staph aureus 2811; test: MIC, microtiter broth dilution (CLSI M7-A7), Assay 1, Table 12 column D, no serum; details: for MIC, column D: Staph aureus 2811, Assay 1, no serum; for MIC: Staphylococcus aureus, 2811, Staph aureus 2811, Assay 1, no serum
# In short: as §1
# [5] = test system: Staph aureus 2812; test: MIC, microtiter broth dilution (CLSI M7-A7), Assay 1, Table 12 column E, no serum; details: for MIC, column E: Staph aureus 2812, Assay 1, no serum; for MIC: Staphylococcus aureus, 2812, Staph aureus 2812, Assay 1, no serum
# In short: as §1
Compound,"MIC, column A [1]","MIC, column B [2]","MIC, column C [3]","MIC, column D [4]","MIC, column E [5]",MIC [1],MIC [2],MIC [4],MIC [5],MIC [3]
"COc1ccc2ncc(F)c(C(O)CC[C@@H]3CCN(C4CC(c5c(F)cccc5F)C4)C[C@@H]3C(=O)O)c2n1 (stereo partly drawn) [Example 182, (3R,4R)-1-[3-(2,6-difluorophenyl)cyclobutyl]-4-[3-(3-fluoro-6-methoxy-1,5-naphthyridin-4-yl)-3-hydroxypropyl]piperidine-3-carboxylic acid]",–,–,1.00 µg/mL,–,–,< 0.0625 µg/mL,< 0.0625 µg/mL,< 0.0625 µg/mL,< 0.0625 µg/mL,–
"COc1ccc2nccc(C(O)CC[C@@H]3CCN(C4CCN(c5ccccc5)C4)C[C@@H]3C(=O)O)c2c1 (stereo partly drawn) [Example 185, (3R,4R)-4-[3-hydroxy-3-(6-methoxyquinolin4-yl)propyl]-1-(1-phenylpyrrolidin-3-yl)piperidine-3-carboxylic acid]",–,–,–,–,–,8 µg/mL,2 µg/mL,8 µg/mL,4 µg/mL,> 64 µg/mL
"COc1ccc2ncc(Cl)c(C(O)CC[C@@H]3CCN(C4CC(c5ccccc5)C4)C[C@@H]3C(=O)O)c2c1 (stereo partly drawn) [Example 187, (3R,4R)-4-[3-(3-chloro-6-methoxyquinolin-4-yl)-3-hydroxypropyl]-1-(3-phenylcyclobutyl)piperidine-3-carboxylic acid]",–,–,1.00 µg/mL,–,–,< 0.0625 µg/mL,< 0.0625 µg/mL,< 0.0625 µg/mL,< 0.0625 µg/mL,–
"COc1ccc2ncc(F)c(C(O)CC[C@@H]3CCN(C4CC(c5c(F)cccc5F)C4)C[C@@H]3C(=O)O)c2n1 (stereo partly drawn) [Example 189, (3R,4R)-1-[3-(2,6-difluorophenyl)cyclobutyl]-4-[3-(3-fluoro-6-methoxy-1,5-naphthyridin-4-yl)-3-hydroxypropyl]piperidine-3-carboxylic acid]",<0.0625 µg/mL,<0.0625 µg/mL,0.125 µg/mL,<0.0625 µg/mL,<0.0625 µg/mL,–,–,–,–,–
"COc1ccc2ncc(F)c(C(O)CC[C@@H]3CCN(C4CC(c5c(F)cccc5F)C4)C[C@@H]3C(=O)O)c2n1 (stereo partly drawn) [Example 190, (3R,4R)-1-[3-(2,6-difluorophenyl)cyclobutyl]-4-[3-(3-fluoro-6-methoxy-1,5-naphthyridin-4-yl)-3-hydroxypropyl]piperidine-3-carboxylic acid]",<0.0625 µg/mL,<0.0625 µg/mL,1.00 µg/mL,<0.0625 µg/mL,0.125 µg/mL,–,–,–,–,–
"COc1ccc2nccc([C@@H](O)CC[C@@H]3CCN(C4CC(c5cc(F)c(F)cc5F)C4)C[C@@H]3C(=O)O)c2c1 (stereo partly drawn) [Example 191, (3R,4R)-4-[(3S)-3-hydroxy-3-(6-methoxyquinolin-4-yl)propyl]-1-[3-(2,4,5-trifluorophenyl)cyclobutyl] piperidine-3-carboxylic acid]",–,–,–,–,–,0.125 µg/mL,< 0.0625 µg/mL,< 0.0625 µg/mL,< 0.0625 µg/mL,1 µg/mL
"COc1ccc2nccc(C(O)CC[C@@H]3CCN(C4CC(Cc5cccc(F)c5)C4)C[C@@H]3C(=O)O)c2c1 (stereo partly drawn) [Example 192, (3R,4R)-1-[3-(3-fluorobenzyl)cyclobutyl]-4-[3-hydroxy-3-(6-methoxyquinolin-4-yl)propyl]piperidine-3-carboxylic acid]",–,–,–,–,–,4 µg/mL,1 µg/mL,1 µg/mL,2 µg/mL,32 µg/mL
"COc1ccc2nccc([C@@H](O)CC[C@@H]3CCN(C4CC(c5cccc(C(F)(F)F)c5F)C4)C[C@@H]3C(=O)O)c2c1 (stereo partly drawn) [Example 193, (3R,4R)-1-{3-[2-fluoro-3-(trifluoromethyl)phenyl]cyclobutyl}-4-[(3S)-3-hydroxy-3-(6-methoxyquinolin-4-yl)propyl]piperidine-3-carboxylic acid]",–,–,–,–,–,0.5 µg/mL,0.125 µg/mL,0.125 µg/mL,0.125 µg/mL,64 µg/mL
"COc1ccc2nccc([C@@H](O)CC[C@@H]3CCN(C4CC(c5ccc(C(F)(F)F)cc5F)C4)C[C@@H]3C(=O)O)c2c1 (stereo partly drawn) [Example 194, (3R,4R)-1-{3-[2-fluoro-4-(trifluoromethyl)phenyl]cyclobutyl}-4-[(3S)-3-hydroxy-3-(6-methoxyquinolin-4-yl)propyl]piperidine-3-carboxylic acid]",–,–,–,–,–,4 µg/mL,2 µg/mL,2 µg/mL,2 µg/mL,> 64 µg/mL
"COc1ccc2nccc([C@@H](O)CC[C@@H]3CCN(C4CC(c5c(F)ccc(F)c5F)C4)C[C@@H]3C(=O)O)c2c1 (stereo partly drawn) [Example 195, (3R,4R)-4-[(3S)-3-hydroxy-3-(6-methoxyquinolin-4-yl)propyl]-1-[3-(2,3,6-trifluorophenyl)cyclobutyl] piperidine-3-carboxylic acid]",–,–,–,–,–,< 0.0625 µg/mL,< 0.0625 µg/mL,< 0.0625 µg/mL,< 0.0625 µg/mL,1 µg/mL
"COc1ccc2nccc([C@@H](O)CC[C@@H]3CCN(C4CC(c5ccc(Br)cc5F)C4)C[C@@H]3C(=O)O)c2c1 (stereo partly drawn) [Example 196, (3R,4R)-1-[3-(4-bromo-2-fluorophenyl)cyclobutyl]-4-[(3S)-3-hydroxy-3-(6-methoxyquinolin-4-yl)propyl] piperidine-3-carboxylic acid]",–,–,–,–,–,8 µg/mL,1 µg/mL,1 µg/mL,2 µg/mL,64 µg/mL
"COc1ccc2nccc([C@@H](O)CC[C@@H]3CCN(C4CC(c5c(F)cccc5F)C4(C)C)C[C@@H]3C(=O)O)c2c1 (stereo partly drawn) [Example 200, (3R,4R)-1-[3-(2,6-difluorophenyl)-2,2-dimethylcyclobutyl]-4-[(3S)-3-hydroxy-3-(6-methoxyquinolin-4-yl)propyl]piperidine-3-carboxylic acid]",–,–,–,–,–,32 µg/mL,8 µg/mL,8 µg/mL,8 µg/mL,> 64 µg/mL

# Second part, the compound after the results:
"MIC, column A [1]","MIC, column B [2]","MIC, column C [3]","MIC, column D [4]","MIC, column E [5]",MIC [1],MIC [2],MIC [4],MIC [5],MIC [3],Compound
<0.0625 µg/mL,<0.0625 µg/mL,16.0 µg/mL,<0.0625 µg/mL,<0.0625 µg/mL,–,–,–,–,–,"COc1ccc2ncc(F)c(CCCC3(C(=O)O)CCN(C4CC(c5c(F)cccc5F)C4)C3)c2c1 (stereo not shown) [Example 181, 1-[3-(2,6-difluorophenyl)cyclobutyl]-3-[3-(3-fluoro-6-methoxyquinolin-4-yl)propyl]pyrrolidine-3-carboxylic acid]"
–,–,–,–,–,2 µg/mL,0.25 µg/mL,0.25 µg/mL,0.5 µg/mL,8 µg/mL,"COc1ccc2nccc(C(O)CC[C@@H]3CCN(C4CCC(c5cc(F)ccc5F)C4)C[C@@H]3C(=O)O)c2c1 (stereo partly drawn) [Example 183, (3R,4R)-1-[3-(2,5-difluorophenyl)cyclopentyl]-4-[3-hydroxy-3-(6-methoxyquinolin-4-yl)propyl]piperidine-3-carboxylic acid]"
–,–,–,–,–,0.25 µg/mL,< 0.0625 µg/mL,< 0.0625 µg/mL,< 0.0625 µg/mL,8 µg/mL,"COc1ccc2ncc(Cl)c(C(O)CCC3(C(=O)O)CCN(C4CC(c5cc(F)ccc5F)C4)C3)c2c1 (stereo not shown) [Example 184, 3-[3-(3-chloro-6-methoxyquinolin-4-yl)-3-hydroxypropyl]-1-[3-(2,5-difluorophenyl)cyclobutyl] pyrrolidine-3-carboxylic acid]"
<0.0625 µg/mL,–,2.00 µg/mL,–,<0.0625 µg/mL,–,< 0.0625 µg/mL,< 0.0625 µg/mL,–,–,"COc1ccc2ncc(Cl)c(C(O)CC[C@@H]3CCN(C4CC(c5cc(F)ccc5F)C4)C[C@@H]3C(=O)O)c2c1 (stereo partly drawn) [Example 186, (3R,4R)-4-[3-(3-chloro-6-methoxyquinolin-4-yl)-3-hydroxypropyl]-1-[3-(2,5-difluorophenyl)cyclobutyl]piperidine-3-carboxylic acid]"
–,–,0.500 µg/mL,–,–,< 0.0625 µg/mL,< 0.0625 µg/mL,< 0.0625 µg/mL,< 0.0625 µg/mL,–,"COc1ccc2ncc(Cl)c(C(O)CC[C@@H]3CCN(C4CC(c5c(F)cccc5F)C4)C[C@@H]3C(=O)O)c2c1 (stereo partly drawn) [Example 188, (3R,4R)-4-[3-(3-chloro-6-methoxyquinolin-4-yl)-3-hydroxypropyl]-1-[3-(2,6-difluorophenyl)cyclobutyl]piperidine-3-carboxylic acid]"
–,–,–,–,–,0.5 µg/mL,< 0.0625 µg/mL,< 0.0625 µg/mL,< 0.0625 µg/mL,4 µg/mL,"COc1ccc2nccc([C@@H](O)CC[C@@H]3CCN(C4CC(c5ccc(F)c(F)c5F)C4)C[C@@H]3C(=O)O)c2c1 (stereo partly drawn) [Example 197, (3R,4R)-4-[(3S)-3-hydroxy-3-(6-methoxyquinolin-4-yl)propyl]-1-[3-(2,3,4-trifluorophenyl)cyclobutyl] piperidine-3-carboxylic acid]"
–,–,–,–,–,0.125 µg/mL,< 0.0625 µg/mL,< 0.0625 µg/mL,< 0.0625 µg/mL,> 64 µg/mL,"COc1ccc2ncc(Cl)c(CCCC3(C(=O)O)CCN(C[C@@H]4C[C@H]4c4cc(F)ccc4F)C3)c2c1 (stereo partly drawn) [Example 198, 3-[3-(3-chloro-6-methoxyquinolin-4-yl)propyl]-1-{[(1R,2R)-2-(2,5-difluorophenyl)cyclopropyl]methyl} pyrrolidine-3-carboxylic acid]"
–,–,–,–,–,0.125 µg/mL,< 0.0625 µg/mL,< 0.0625 µg/mL,< 0.0625 µg/mL,> 64 µg/mL,"COc1ccc2ncc(Cl)c(CCCC3(C(=O)O)CCN(C4CCC(c5cc(F)ccc5F)C4)C3)c2c1 (stereo not shown) [Example 199, 3-[3-(3-chloro-6-methoxyquinolin-4-yl)propyl]-1-[3-(2,5-difluorophenyl)cyclopentyl]pyrrolidine-3-carboxylic acid]"

# From patent publication US20080280879A1, “SUBSTITUTED HETEROCYCLIC DERIVATIVES AND THEIR PHARMACEUTICAL USE AND COMPOSITIONS” (priority 2007, published 2008)
